Measurements: patent publication US10428044B2, “3-amino-1,5,6,7-tetrahydro-4H-indol-4-ones” (Bayer Pharma Aktiengesellschaft, priority 2014, dated 2019)

These molecules were tested against (recombinant) catalytic domain of human Bub1 (amino acids 704-1085) (Homo sapiens (Human), UniProt O43683) (assay: Bub1 kinase assay (TR-FRET)). Details: ATP 10 μM final, peptide substrate 1 μM final, 60 min at 22° C., read-out: Biological Assay: Bub1 kinase assay median IC50.
Format: biochemical
Procedure, shortened: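 Readout was TR-FRET between a Eu-labeled antibody complex recognizing phosphoserine and streptavidin-XL665 on the biotinylated peptide, after EDTA stop and 1 h at 22° C. The kinase reaction ran for 60 min at 22° C. Values are means or medians of repeat tests, from 4-parameter fits normalized to enzyme-free and inhibitor-free controls.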

Chain of (recombinant) catalytic domain of human Bub1 (amino acids 704-1085) (O43683 704-1085): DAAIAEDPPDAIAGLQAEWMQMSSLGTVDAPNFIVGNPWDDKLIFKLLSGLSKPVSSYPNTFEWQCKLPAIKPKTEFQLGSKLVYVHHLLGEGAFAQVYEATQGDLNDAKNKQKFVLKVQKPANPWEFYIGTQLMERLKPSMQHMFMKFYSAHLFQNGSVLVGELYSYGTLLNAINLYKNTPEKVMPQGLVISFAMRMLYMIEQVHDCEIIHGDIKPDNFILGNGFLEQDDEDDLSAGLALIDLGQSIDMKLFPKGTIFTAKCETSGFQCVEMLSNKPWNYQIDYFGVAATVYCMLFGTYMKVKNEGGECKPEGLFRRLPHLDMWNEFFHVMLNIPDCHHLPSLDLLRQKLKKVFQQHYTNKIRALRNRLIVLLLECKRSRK

First: O=C1CCCc2[nH]c(-c3cc(F)ncc3F)c(Nc3ccccc3)c21 [Example 218, 2-(2,5-difluoropyridin-4-yl)-3-(phenylamino)-1,5,6,7-tetrahydro-4H-indol-4-one]
Second: CC1(C)CC(=O)c2c([nH]c(-c3cc(Cl)ncc3F)c2Nc2ccccc2)C1 [Example 220, 2-(2-chloro-5-fluoropyridin-4-yl)-6,6-dimethyl-3-(phenylamino)-1,5,6,7-tetrahydro-4H-indol-4-one]
The IC50 of the first is 1.5-fold lower: 906 nM for the first, 1400 nM for the second.

`CC1(C)CC(=O)c2c([nH]c(-c3ccnc(Cl)c3F)c2Nc2ccccc2)C1` [Example 219, 2-(2-chloro-3-fluoropyridin-4-yl)-6,6-dimethyl-3-(phenylamino)-1,5,6,7-tetrahydro-4H-indol-4-one] and `CC1(C)CC(=O)c2c([nH]c(-c3ccnc4[nH]cnc34)c2Nc2ccccc2)C1` [Example 221, 2-(3H-imidazo[4,5-b]pyridin-7-yl)-6,6-dimethyl-3-(phenylamino)-1,5,6,7-tetrahydro-4H-indol-4-one] are within 1.5-fold of each other in IC50: 12.2 nM for the first, 13.1 nM for the second.

`CC(C)C1CC(=O)c2c([nH]c(-c3ccnc(N)c3)c2Nc2ccc(F)c(F)c2)C1` (stereo not drawn) [Example 222, 2-(2-aminopyridin-4-yl)-3-[(3,4-difluorophenyl)amino]-6-(propan-2-yl)-1,5,6,7-tetrahydro-4H-indol-4-one] and `CC(C)C(=O)Nc1cc(-c2[nH]c3c(c2Nc2ccccc2)C(=O)CCC3)ccn1` [Example 230, 2-methyl-N-{4-[4-oxo-3-(phenylamino)-4,5,6,7-tetrahydro-1H-indol-2-yl]pyridin-2-yl}propanamide] are within 1.5-fold of each other in IC50: 28.5 nM for the first, 20 nM for the second.

Going from `CC1(C)CC(=O)c2c([nH]c(-c3ccnc(N)n3)c2Nc2ccccc2)C1` [Example 223, 2-(2-aminopyrimidin-4-yl)-6,6-dimethyl-3-(phenylamino)-1,5,6,7-tetrahydro-4H-indol-4-one] to `CC1(C)CC(=O)c2c([nH]c(-c3cc(N)ncn3)c2Nc2ccccc2)C1` [Example 224, 2-(6-aminopyrimidin-4-yl)-6,6-dimethyl-3-(phenylamino)-1,5,6,7-tetrahydro-4H-indol-4-one], the IC50 rises from 40.5 nM to 248 nM (6.1-fold).

`CCC(=O)Nc1cc(-c2[nH]c3c(c2Nc2ccccc2)C(=O)CCC3)ccn1` [Example 225, N-{4-[4-oxo-3-(phenylamino)-4,5,6,7-tetrahydro-1H-indol-2-yl]pyridin-2-yl}propanamide] and `CCCC(=O)Nc1cc(-c2[nH]c3c(c2Nc2ccccc2)C(=O)CCC3)ccn1` [Example 226, N-{4-[4-oxo-3-(phenylamino)-4,5,6,7-tetrahydro-1H-indol-2-yl]pyridin-2-yl}butanamide] are within 1.5-fold of each other in IC50: 26.7 nM for the first, 20.4 nM for the second.

`CC(C)(C)C(=O)Nc1cc(-c2[nH]c3c(c2Nc2ccccc2)C(=O)CCC3)ccn1` [Example 227, 2,2-dimethyl-N-{4-[4-oxo-3-(phenylamino)-4,5,6,7-tetrahydro-1H-indol-2-yl]pyridin-2-yl}propanamide] and `CC(C)(F)C(=O)Nc1cc(-c2[nH]c3c(c2Nc2ccccc2)C(=O)CCC3)ccn1` [Example 242, 2-fluoro-2-methyl-N-{4-[4-oxo-3-(phenylamino)-4,5,6,7-tetrahydro-1H-indol-2-yl]pyridin-2-yl}propanamide] are within 1.5-fold of each other in IC50: 260 nM for the first, 182 nM for the second.

`CC1(C(=O)Nc2cc(-c3[nH]c4c(c3Nc3ccccc3)C(=O)CCC4)ccn2)CC1` [Example 228, 1-methyl-N-{4-[4-oxo-3-(phenylamino)-4,5,6,7-tetrahydro-1H-indol-2-yl]pyridin-2-yl}cyclopropanecarboxamide] and `O=C1CCCc2[nH]c(-c3ccnc(NC(=O)C4(F)CC4)c3)c(Nc3ccccc3)c21` [Example 261, 1-fluoro-N-{4-[4-oxo-3-(phenylamino)-4,5,6,7-tetrahydro-1H-indol-2-yl]pyridin-2-yl}cyclopropanecarboxamide] are within 1.5-fold of each other in IC50: 56.7 nM for the first, 41.7 nM for the second.

First: O=C1CCCc2[nH]c(-c3ccnc(NC(=O)C4CCC4)c3)c(Nc3ccccc3)c21 [Example 229, N-{4-[4-oxo-3-(phenylamino)-4,5,6,7-tetrahydro-1H-indol-2-yl]pyridin-2-yl}cyclobutanecarboxamide]
Second: O=C(CC1CC1)Nc1cc(-c2[nH]c3c(c2Nc2ccccc2)C(=O)CCC3)ccn1 [Example 231, 2-cyclopropyl-N-{4-[4-oxo-3-(phenylamino)-4,5,6,7-tetrahydro-1H-indol-2-yl]pyridin-2-yl}acetamide]
The IC50 of the first is 1.5-fold lower: 19.4 nM for the first, 29.9 nM for the second.

Going from `CC1(C)CC1C(=O)Nc1cc(-c2[nH]c3c(c2Nc2ccccc2)C(=O)CCC3)ccn1` (stereo not drawn) [Example 232, 2,2-dimethyl-N-{4-[4-oxo-3-(phenylamino)-4,5,6,7-tetrahydro-1H-indol-2-yl]pyridin-2-yl}cyclopropanecarboxamide] to `CC1CC1C(=O)Nc1cc(-c2[nH]c3c(c2Nc2ccccc2)C(=O)CCC3)ccn1` (stereo not drawn) [Example 237, 2-methyl-N-{4-[4-oxo-3-(phenylamino)-4,5,6,7-tetrahydro-1H-indol-2-yl]pyridin-2-yl}cyclopropanecarboxamide], the IC50 falls from 34.7 nM to 13.2 nM (2.6-fold). The second is the more potent here.

`O=C(Cc1ccccc1)Nc1cc(-c2[nH]c3c(c2Nc2ccccc2)C(=O)CCC3)ccn1` [Example 233, N-{4-[4-oxo-3-(phenylamino)-4,5,6,7-tetrahydro-1H-indol-2-yl]pyridin-2-yl}-2-phenylacetamide] and `O=C(CCc1ccccc1)Nc1cc(-c2[nH]c3c(c2Nc2ccccc2)C(=O)CCC3)ccn1` [Example 235, N-{4-[4-oxo-3-(phenylamino)-4,5,6,7-tetrahydro-1H-indol-2-yl]pyridin-2-yl}-3-phenylpropanamide] are within 1.5-fold of each other in IC50: 43.9 nM for the first, 61.6 nM for the second.

First: O=C(CCCc1ccccc1)Nc1cc(-c2[nH]c3c(c2Nc2ccccc2)C(=O)CCC3)ccn1 [Example 236, N-{4-[4-oxo-3-(phenylamino)-4,5,6,7-tetrahydro-1H-indol-2-yl]pyridin-2-yl}-4-phenylbutanamide]
Second: O=C(Nc1cc(-c2[nH]c3c(c2Nc2ccccc2)C(=O)CCC3)ccn1)c1ccccc1 [Example 238, N-{4-[4-oxo-3-(phenylamino)-4,5,6,7-tetrahydro-1H-indol-2-yl]pyridin-2-yl}benzamide]
The IC50 of the first is 2.1-fold lower: 8.26 nM for the first, 17.7 nM for the second. The first is the more potent here.

Compared with `O=C1CCCc2[nH]c(-c3ccnc(NC(=O)C4CC4c4ccccc4)c3)c(Nc3ccccc3)c21` (stereo not drawn) [Example 239, N-{4-[4-oxo-3-(phenylamino)-4,5,6,7-tetrahydro-1H-indol-2-yl]pyridin-2-yl}-2-phenylcyclopropanecarboxamide], `O=C1CCCc2[nH]c(-c3ccnc(NC(=O)[C@H]4C[C@@H]4F)c3)c(Nc3ccccc3)c21` [Example 250, (R,S/S,R)-2-fluoro-N-{4-[4-oxo-3-(phenylamino)-4,5,6,7-tetrahydro-1H-indol-2-yl]pyridin-2-yl}cyclopropanecarboxamide] is 4.6-fold lower in IC50: 45.9 nM for the first, 10 nM for the second.

Going from `CC(=O)N(C)c1cc(-c2[nH]c3c(c2Nc2ccccc2)C(=O)CC(C)(C)C3)ccn1` [Example 240, N-{4-[6,6-dimethyl-4-oxo-3-(phenylamino)-4,5,6,7-tetrahydro-1H-indol-2-yl]pyridin-2-yl}-N-methylacetamide] to `CC1(C)CC(=O)c2c([nH]c(-c3ccnc(NC(=O)[C@@H]4C[C@@H]4F)c3)c2Nc2ccccc2)C1` [Example 258], the IC50 falls from 6740 nM to 6.49 nM (1000-fold). The second is the more potent here.

First: CC(F)C(=O)Nc1cc(-c2[nH]c3c(c2Nc2ccccc2)C(=O)CCC3)ccn1 (stereo not drawn) [Example 241, 2-fluoro-N-{4-[4-oxo-3-(phenylamino)-4,5,6,7-tetrahydro-1H-indol-2-yl]pyridin-2-yl}propanamide]
Second: CC(C(=O)Nc1cc(-c2[nH]c3c(c2Nc2ccccc2)C(=O)CCC3)ccn1)C(F)(F)F (stereo not drawn) [Example 247, 3,3,3-trifluoro-2-methyl-N-{4-[4-oxo-3-(phenylamino)-4,5,6,7-tetrahydro-1H-indol-2-yl]pyridin-2-yl}propanamide]
The IC50 of the first is 2-fold lower: 40.7 nM for the first, 81.3 nM for the second. The first is the more potent here.

First: CC(C)(CO)C(=O)Nc1cc(-c2[nH]c3c(c2Nc2ccccc2)C(=O)CCC3)ccn1 [Example 243, 3-hydroxy-2,2-dimethyl-N-{4-[4-oxo-3-(phenylamino)-4,5,6,7-tetrahydro-1H-indol-2-yl]pyridin-2-yl}propanamide]
Second: CC(C)(C#N)C(=O)Nc1cc(-c2[nH]c3c(c2Nc2ccccc2)C(=O)CCC3)ccn1 [Example 245, 2-cyano-2-methyl-N-{4-[4-oxo-3-(phenylamino)-4,5,6,7-tetrahydro-1H-indol-2-yl]pyridin-2-yl}propanamide]
The IC50 of the first is 3-fold higher: 255 nM for the first, 84.4 nM for the second.

`CSCC(=O)Nc1cc(-c2[nH]c3c(c2Nc2ccccc2)C(=O)CCC3)ccn1` [Example 244, 2-(methylsulfanyl)-N-{4-[4-oxo-3-(phenylamino)-4,5,6,7-tetrahydro-1H-indol-2-yl]pyridin-2-yl}acetamide] and `CS(=O)(=O)CC(=O)Nc1cc(-c2[nH]c3c(c2Nc2ccccc2)C(=O)CCC3)ccn1` [Example 248, 2-(methylsulfonyl)-N-{4-[4-oxo-3-(phenylamino)-4,5,6,7-tetrahydro-1H-indol-2-yl]pyridin-2-yl}acetamide] are within 1.5-fold of each other in IC50: 31 nM for the first, 28.2 nM for the second.

Going from `N#CC1(C(=O)Nc2cc(-c3[nH]c4c(c3Nc3ccccc3)C(=O)CCC4)ccn2)CC1` [Example 246, 1-cyano-N-{4-[4-oxo-3-(phenylamino)-4,5,6,7-tetrahydro-1H-indol-2-yl]pyridin-2-yl}cyclopropanecarboxamide] to `O=C1CCCc2[nH]c(-c3ccnc(NC(=O)[C@H]4C[C@@H]4F)c3)c(Nc3ccccc3)c21` [Example 251, (R,S/S,R)-2-fluoro-N-{4-[4-oxo-3-(phenylamino)-4,5,6,7-tetrahydro-1H-indol-2-yl]pyridin-2-yl}cyclopropanecarboxamide], the IC50 falls from 60.2 nM to 10.5 nM (5.7-fold).

Going from `O=C1CCCc2[nH]c(-c3ccnc(NC(=O)[C@H]4C[C@H]4F)c3)c(Nc3ccccc3)c21` [Example 253, (1R,2R)-2-fluoro-N-{4-[4-oxo-3-(phenylamino)-4,5,6,7-tetrahydro-1H-indol-2-yl]pyridin-2-yl}cyclopropanecarboxamide] to `CC1(C)CC(=O)c2c([nH]c(-c3ccnc(NC(=O)[C@H]4C[C@H]4F)c3)c2Nc2ccccc2)C1` [Example 259], the IC50 falls from 23.3 nM to 10.1 nM (2.3-fold).
